We go through 19 compounds from patent publication US4029688A, “Carbamic pesticidal compositions” (priority 1974, dated 1977).

What all share (type): in vivo
Assay [1] has as its system house flies (Musca domestica, L.). The experiment in a line: Fly Bait Test. Details: key to Fly: C: no control; B: partial control; A: excellent control. To be noted: for Fly: bait, 500 parts per million, twenty-four hours; for LC50: Musca domestica, Table II, read-out: Housefly LD50. Here is the method: (§1) Suspensions of the test compounds were prepared by dissolving one gram of compound in 50 milliliters of acetone in which had been dissolved 0.1 gram (10 percent of the weight of compound) of an alkylphenoxy polyethoxyethanol surfactant, as an emulsifying or dispersing agent. The resulting solution was mixed into 150 milliliters of water to give roughly 200 milliliters of a suspension containing the compound in finely divided form. The thus-prepared stock suspension contained 0.5 percent by weight of compound. The test concentrations in parts per million by weight employed in the tests described hereinbelow were obtained by appropriate dilutions of the stock suspension with water. The test procedures were as follows:
Four to six day old adult house flies (Musca domestica, L.), reared according to the specifications of the Chemical Specialties Manufacturing Association (Blue Book, McNair-Dorland Co., N. Y. 1954; pages 243-244, 261) under controlled conditions of 80°±5° F. and 50±5 percent relative humidity, were the test insects. The flies were immobilized by anesthetizing with carbon dioxide and twenty-five immobilized individuals, males and females, were transferred to a cage consisting of a standard food strainer about five inches in diameter which was inverted over a wrapping-paper-covered surface. The test compounds were formulated by diluting the stock suspension with a 10 percent (by weight) sugar solution to give a suspension containing 500 parts of test compound per million parts of final formulation, by weight. Ten milliliters of the test formulation were added to a souffle cup containing a one-inch square of an absorbent cotton pad. This bait cup was introduced and centered on the blotting paper under the food strainer prior to admitting the anesthetized flies. The caged flies were allowed to feed on the bait for twenty-four hours, at a temperature of 80°±5° F. and the relative humidity of 50±5 percent.
(§2) In the tests described above, the pesticidal activity of the compounds against aphid, mite, Southern Armyworm, Bean Beetle, house fly and nematode was rated as follows:
(§3) Comparison tests were conducted to assess the biological and chemical properties of certain representative species of the claimed invention in relation to their corresponding N-methyl carbamate compositions. The test procedures described above were employed in these experiments in order to determine the LD50 (number of parts per million of active ingredients required to achieve fifty percent mortality of the insects tested) for each of the compositions tested. In the case of the aphid and mite tests a side by side comparison was made of the N-methyl carbamate composition versus the corresponding perhalomethylsulfenyl derivative.

Assay [2] deals with Mexican bean beetle (Epilachna varivestis, Muls.). Put plainly: Mexican Bean Beetle Leaf Spray Test. Also on record: key to Beetle: C: no control; B: partial control; A: excellent control. To be noted: for Beetle: leaf spray, 500 parts per million, three days; for LC50: Epilachna varivestis, Table II, read-out: Beetle LD50. The protocol:
as §1
Fourth instar larvae of the Mexican bean beetle (Epilachna varivestis, Muls.), reared on Tendergreen bean plants at a temperature of 80°±5° F. and 50±5 percent relative humidity, were the test insects.
The test compounds were formulated by diluting the stock suspension with water to give a suspension containing 500 parts of test compound per million parts of final formulation. Potted Tendergreen bean plants of standard height and age were placed on a revolving turntable and sprayed with 100-110 milliliters of test compound formulation by use of a DeVilbiss spray gun set at 10 psig air pressure. This application, which lasted 25 seconds, was sufficient to wet plants to run-off. As a control, 100-110 milliliters of a water-acetone-emulsifier solution containing no test compound were also sprayed on infested plants. When dry, the paired leaves were separated and each was placed in a 9 centimeter Petri dish lined with moistened filter paper. Five randomly selected larvae were introduced into each dish, and the dishes were closed. The closed dishes were labeled and held at a temperature of 80°±5° F. for three days. Although the larvae could easily consume the leaf within 24 to 48 hours, no more food was added. Larvae which were unable to move the length of the body, even upon stimulation, were considered dead.
as §2, §3

The test system of assay [3] is southern armyworm (Prodenia eridania, (Cram.)). The experiment in a line: Southern Armyworm Leaf Spray Test. Details: key to Armyworm: C: no control; B: partial control; A: excellent control. To be noted: for Armyworm: leaf spray, 500 parts per million, three days; for LC50: Spodoptera eridania, Table II, read-out: Armyworm LD50. The protocol:
as §1
Larvae of the southern armyworm (Prodenia eridania, (Cram.)), reared on Tendergreen bean plants at a temperature of 80°±5° F. and a relative humidity of 50±5 percent, constituted the test insects.
The test compounds were formulated by diluting the stock suspension with water to give a suspension containing 500 parts of test compound per million parts of final formulation. Potted Tendergreen bean plants of standard height and age were placed on a revolving turntable and sprayed with 100-110 milliliters of test compound formulation by use of a DeVilbiss spray gun set at 10 psig air pressure. This application, which lasted 25 seconds, was sufficient to wet plants to run-off. As a control, 100-110 milliliters of a water-acetone-emulsifier solution containing no test compound were also sprayed on infested plants. When dry, the paired leaves were separated and each one was placed in a 9 centimeter Petri dish lined with moistened filter paper. Five randomly selected larvae were introduced into each dish and the dishes were closed. The closed dishes were labeled and held at 80-85° F. for three days. Although the larvae could easily consume the whole leaf within twenty-four hours, no more food was added. Larvae which were unable to move the length of the body, even upon stimulation by prodding, were considered dead. Percent mortality was recorded for various concentration levels.
as §2, §3

The subject of assay [4] is two-spotted mite (Tetranychus urticae Koch). Put plainly: Mite Systemic Test. The following applies: soil drench, 20 milliliters of test formulation. Also on record: key: C: no control; B: partial control; A: excellent control. Here is the method: as §1
Adults and numphal stages of the two-spotted mite (Tetranychus urticae Koch), reared on Tendergreen bean plants at 80±5 percent relative humidity, were the test organisms. Infested leaves from a stock culture were placed on the primary leaves of two bean plants six to eight inches in height, growing in a 21/2 inch clay pot. 150 -200 Mites, a sufficient number for testing, transferred from the excised leaves to the fresh plants in a period of twenty-four hours. Following the twenty-four hour transfer period, the excised leaves were removed from the infested plants. The test compounds were formulated by diluting the stock suspension with water to give a suspension containing 500 parts of test compound per million parts of final formulation. The potted plants (one pot per compound) were placed on a revolving turntable and sprayed with 100-110 milliliters of test compound formulation by use of a DeVilbiss spray gun set at 40 psig. air pressure. This application, which lasted 25 seconds, was sufficient to wet the plants to run-off. As a control, 100-110 milliliters of a water solution containing acetone and emulsifier in the same concentrations as the test compound formulation, but containing no test compound, were also sprayed on infested plants. The sprayed plants were held at 80±5 percent relative humidity for six days, after which a mortality count of motile forms was made. Microscopic examination for motile forms was made on the leaves of the test plants. Any individual which was capable of locomotion upon prodding was considered living.
Systemic treatments were made by drenching 20 milliliters of the test compound formulation into the soil around the roots of bean plants growing in 21/2 inch clay pots. These pots were held in 4 ounce wax paper containers to prevent cross-contamination and loss by leaching. The plants were 4 inches high at the time of treatment and had been infested with mites 24 hours previously. Subsequent steps for testing of the systemic miticidal activity were the same as those described above for the spray method of application.
In the tests described above, the pesticidal activity of the compounds against aphid, mite, Southern Armyworm, Bean Beetle, house fly and nematode was rated as follows: […]

≈ marks a conversion by molar mass, not a printed value.

Take `CN(SC(F)(F)F)C(=O)ON=CC(C)(C)C#N` [drawing 12]: the Fly result in assay [1] is reported as “A”. Besides, the Beetle result in assay [2] was “A”. Moreover, the Armyworm entry in assay [3] is “A”.
With `CC(=NOC(=O)N(C)SC(Cl)(Cl)Cl)C(C)(C)[N+](=O)[O-]`, in assay [1], the Fly entry is “A”. Also, the “Mite (Systemic)” value in assay [4] is listed as “A”. Further, in assay [2], the Beetle result is given as “A”. Besides, in assay [3], the Armyworm entry is “B”.
Consider `CN(SC(Cl)(Cl)Cl)C(=O)ON=CC(C)(C)C#N` [2-Methyl-2-cyanopropionaldehyde O-(N-methyl-N-trichloromethanesulfenylcarbamoyl)oxime], for which, in assay [1], the LC50 amounted to 7 µg/mL (≈ 22 µM) and the Fly entry is recorded as “A”. In addition, the “Mite (Systemic)” value in assay [4] is “A”. For the same compound, in assay [2], the LC50 amounted to 45 µg/mL (≈ 141 µM) and the Beetle entry is “A”. In assay [3], the LC50 is 50 µg/mL (≈ 157 µM) and the Armyworm entry was “A”.
As for `CSCC(C)=NOC(=O)N(C)SC(Cl)(Cl)Cl`, the Fly result in assay [1] is “A”. For the same compound, in assay [4], the “Mite (Systemic)” value was “C”. The Beetle result in assay [2] is reported as “C”. Further, in assay [3], the Armyworm result is on record as “C”.
Turning to `CN(SC(Cl)(Cl)Cl)C(=O)ON=CC(C)(C)S(C)(=O)=O` [2-Methyl-2-methylsulfonylpropionaldehyde O-(N-methyl-N-trichloromethanesulfenylcarbamoyl)oxime], in assay [1], the Fly entry is reported as “A”. The “Mite (Systemic)” value in assay [4] was “C”. Moreover, the Beetle result in assay [2] is given as “A”. Besides, the Armyworm entry in assay [3] is given as “C”.
As to `CC(=NOC(=O)N(C)SC(Cl)(Cl)Cl)C(C)(C)C#N`, the Fly entry in assay [1] was “A”. Also, in assay [4], the “Mite (Systemic)” value is on record as “A”. For the same compound, in assay [2], the Beetle entry is recorded as “A”. The Armyworm result in assay [3] is on record as “B”.
Take `CN(SC(Cl)(Cl)Cl)C(=O)ON=CC(C)(C)[S+](C)[O-]` (centres unmarked) [2-Methyl-2-methylsulfinylpropionaldehyde O-(N-methyl-N-trichloromethanesulfenylcarbamoyl)oxime]: the Fly entry in assay [1] is recorded as “A”. The “Mite (Systemic)” value in assay [4] is on record as “A”. In addition, the Beetle entry in assay [2] is reported as “A”. Moreover, the Armyworm result in assay [3] is on record as “A”.
Turning to `CSC(=NOC(=O)N(C)SC(Cl)(Cl)Cl)C(C)(SC)SC`, in assay [1], the Fly entry was “A”. Also, in assay [4], the “Mite (Systemic)” value is listed as “B”. Besides, the Beetle entry in assay [2] is reported as “A”. For the same compound, the Armyworm entry in assay [3] is “C”.
Turning to `CCOC(=O)CCSC(C)=NOC(=O)N(C)SC(Cl)(Cl)Cl`, in assay [1], the Fly entry is given as “B”. Further, in assay [4], the “Mite (Systemic)” value is given as “C”. The Beetle result in assay [2] was “B”. In addition, the Armyworm result in assay [3] is listed as “B”.
As for `CC(CSC(C)(C)C)=NOC(=O)N(C)SC(Cl)(Cl)Cl`, the Fly result in assay [1] is “C”. In assay [4], the “Mite (Systemic)” value is “C”. Besides, in assay [2], the Beetle result is “C”. Further, in assay [3], the Armyworm result is on record as “C”.
Take `CCOC(=O)C(C)SC(C)(C)C=NOC(=O)N(C)SC(Cl)(Cl)Cl` (centres unmarked): the Fly entry in assay [1] is “C”. Besides, the “Mite (Systemic)” value in assay [4] is listed as “B”. Also, the Beetle entry in assay [2] is “C”. Besides, the Armyworm result in assay [3] is given as “C”.
In the case of `CC(=NOC(=O)N(C)SC(Cl)(Cl)Cl)SCCC#N` [1-(2-Cyanoethylthio)acetaldehyde O-(N-methyl-N-trichloromethanesulfenylcarbamoyl)oxime], in assay [1], the LC50 stood at 3 µg/mL (≈ 8.55 µM) and the Fly entry is given as “A”. Besides, in assay [2], the LC50 was found to be 15 µg/mL (≈ 42.8 µM) and the Beetle entry is “A”. For the same compound, in assay [3], the LC50 came to 6 µg/mL (≈ 17.1 µM) and the Armyworm entry is reported as “A”.
With `COC(C)(C)C(Cl)=NOC(=O)N(C)SC(Cl)(Cl)Cl`, the Fly result in assay [1] was “A”. Also, the “Mite (Systemic)” value in assay [4] is “A”. The Beetle entry in assay [2] was “A”. The Armyworm entry in assay [3] is “C”.
As for `CC(C[N+](=O)[O-])=NOC(=O)N(C)SC(Cl)(Cl)Cl`, the Fly entry in assay [1] is “A”. In addition, the “Mite (Systemic)” value in assay [4] is listed as “C”. In addition, in assay [2], the Beetle result is “B”. Further, in assay [3], the Armyworm entry was “C”.
For `CSCC(=NOC(=O)N(C)SC(Cl)(Cl)Cl)C(C)(C)C`, the Fly entry in assay [1] is “B”. The “Mite (Systemic)” value in assay [4] is “A”. In assay [2], the Beetle result is “A”. For the same compound, the Armyworm result in assay [3] is “C”.
Turning to `CCOC(=O)CSC(C)=NOC(=O)N(C)SC(Cl)(Cl)Cl`, the Fly entry in assay [1] was “C”. Also, in assay [4], the “Mite (Systemic)” value is recorded as “C”. In addition, in assay [2], the Beetle entry was “C”. The Armyworm entry in assay [3] was “C”.
As to `CN(SC(Cl)(Cl)Cl)C(=O)ON=CC(C)(C)[N+](=O)[O-]` [2-Methyl-2-nitropropionaldehyde O-(N-methyl-N-trichloromethanesulfenylcarbamoyl)oxime], in assay [1], the LC50 came out at 5 µg/mL (≈ 14.8 µM) and the Fly entry is on record as “A”. Also, the “Mite (Systemic)” value in assay [4] is recorded as “A”. In assay [2], the LC50 stood at 17 µg/mL (≈ 50.2 µM) and the Beetle entry was “A”. In assay [3], the LC50 is 130 µg/mL (≈ 384 µM) and the Armyworm entry was “A”.
On to `CCOC(=O)CSC(C)(C)C=NOC(=O)N(C)SC(Cl)(Cl)Cl`, for which the Fly result in assay [1] is “C”. In addition, the “Mite (Systemic)” value in assay [4] is “C”. For the same compound, in assay [2], the Beetle result is on record as “B”. In assay [3], the Armyworm result is reported as “C”.
On to `CC(=NOC(=O)N(C)SC(Cl)(Cl)Cl)C(C)(C)N=[N+]=[N-]`, for which, in assay [1], the Fly result was “A”. Also, the “Mite (Systemic)” value in assay [4] is “C”. Further, the Beetle entry in assay [2] is “A”. The Armyworm result in assay [3] was “C”.
